Data set [1] deals with HSV-2. Description: Anti-viral activity on HSV-2, plaque assaying in Vero cells. The settings on record: Human alphaherpesvirus 2, Vero.
Data set [2] deals with HSV-2. The data set is described as follows: Comparison of SP-012 and acyclovir in HSV-2-infected mice (Example 9). Conditions: for Number of death/total number: 0.2 mg per administration to the genital until seven days after infection, 15 days observation; for Number of HSV-2 positive mouse/total number: genital wash, first day to 12 days after infection.
Method: Five to six-week-old female BALB/c mice were locally (genital) inoculated with HSV-2 in an amount of 20 μl (containing a reduced viral amount of 1×10^4 PFU per mouse in consideration of tracing also untreated control mice). […] From the first day to 12 days after the viral infection, the genital was washed with phosphate-buffered physiological saline every day, and the amount of virus therein was measured in each mouse. Also, for 15 days, the severity of the development of the disease and the case of death were recorded.
Data set [3] deals with HSV-2. The data set is described as follows: Inhibitory effect on HSV-2 virus invasion of the cells (Vero cells, 37° C.). Format: cell-based, herpes simplex virus type 2. Conditions: for Amount of virus invaded in 30 minutes / Amount of virus invaded in 3 hours: Vero cells, 37° C., control = 100%. The text has this:
Subsequently, the inhibitory effect of polyethyleneimine in the stage in which HSV-2 adsorbed to the host cells invades the cells was investigated.

Data set [4] concerns HSV-2. Description: Inhibitory effect on HSV-2 virus adsorption to the cells (Vero cells, 4° C.). Conditions: for Amount of virus adsorbed to host cells: Vero cells, 4° C. one hour, control = 100%.
Data set [5] can be described thus: in vitro. Conditions: African green monkey.
Method: (§1) A test for evaluation of the cytotoxicity of polyethyleneimine in each cell was carried out according to the following procedure.
(§2) The cell proliferation count was then measured by trypan blue staining.
In data set [6] the test system is Vero cells.
Method: as §1, §2
In data set [7] the test system is MDCK cells. Description: Cytotoxicity (CC50), cell count by trypan blue staining, MDCK cells. Format: cell-based, dog.

In brackets after ≈: the same amount, converted by molar mass. Like-named read-outs stand apart in the source and are kept apart here.

Consider `Nc1nc2c(ncn2COCCO)c(=O)[nH]1` [Acyclovir, acyclovir], for which the IC50 in data set [1] (read-out: Anti-viral activity (IC50) A) turned out to be 0.91 µg/mL (≈ 4.04 µM); in data set [1] (read-out: Anti-viral activity (IC50) B) it was 0.92 µg/mL (≈ 4.09 µM). Also, the “Number of death/total number” value was 0/10 in data set [2] and “No mice died” in data set [2] (listed as acyclovir). In addition, the “Development of the disease (genital inflammation)” value in data set [2] (0.2 mg per administration, 10 mice) is listed as “transient inflammation”. For the same compound, the “Number of HSV-2 positive mouse/total number” value was 1/10 in data set [2] (0.2 mg per administration) and “the virus was detected in one out of 10 mice” in data set [2] (0.2 mg per administration, listed as acyclovir). Also, the “Amount of virus invaded in 30 minutes” value was 99% in data set [3] (1 μg/ml); 94% in data set [3] (10 μg/ml); 87% in data set [3] (100 μg/ml); 68% in data set [3] (1000 μg/ml); “Toxic” in data set [3] (10000 μg/ml). The “Amount of virus invaded in 3 hours” value in data set [3] (100 μg/ml) is reported as 89%; in data set [3] (1000 μg/ml), “Toxic”; in data set [3] (10000 μg/ml), “Toxic”. The “Inhibition of viral invasion, overall finding” value in data set [3] (over the tested concentrations) is recorded as “did not inhibit HSV-2 virus invasion of the cells”. The entries for the “Amount of virus adsorbed to host cells” value in data set [4] (100 μg/ml), in data set [4] (1000 μg/ml) and in data set [4] (10000 μg/ml) were 76%, “Toxic” and “Toxic”, respectively. Also, the “Inhibition of viral adsorption, overall finding” value in data set [4] (over the tested concentrations) is “almost no dose-dependent adsorption-inhibitory effect”. Besides, in data set [5], the CC50 at 72 h worked out at 890 µg/mL (≈ 3950 µM).

Take polyethyleneimine [P-1000]: in data set [6], the “Cytotoxicity (CC50)” value was 0.0044 μl/ml.

Turning to polyethyleneimine [SP-003], the “Cytotoxicity (CC50)” value in data set [7] is on record as 0.057 μl/ml; in data set [6] it was 0.071 μl/ml.

On to polyethyleneimine [SP-006], for which the results for the “Cytotoxicity (CC50)” value in data set [7] and in data set [6] were 0.57 μl/ml and 1.1 μl/ml, respectively.

On to polyethyleneimine [SP-012], for which the “Cytotoxicity (CC50)” value in data set [7] is reported as 0.34 μl/ml.

For the compound polyethyleneimine [SP-018], the results for the “Cytotoxicity (CC50)” value in data set [7] and in data set [6] were 0.064 μl/ml and 0.057 μl/ml, respectively.

On to polyethyleneimine [SP-200], for which the “Cytotoxicity (CC50)” value in data set [6] was determined as 0.0045 µg/mL.

In general, IC50 refers to the concentration needed to halve the response being measured.

The values are drawn from US20110318298A1, “VIRAL INFECTION THERAPEUTIC DRUG CONTAINING POLYALKYLENEIMINE” (Nippon Shokubai Co., Ltd., priority 2008, published 2011).
